Laboratory results published in paper PMC9120017, “Inhibition mechanism of the chloride channel TMEM16A by the pore blocker 1PBC” (Nature Communications, 2022).
Like-named read-outs stand apart in the source and are kept apart here.

Target: T1, mouse TMEM16A mutant K603Q (Mus musculus, UniProt Q8BHY3, K603Q)
T1 construct: expressed in transfected cells; host or cells: HEK293T
T1 sequence (Q8BHY3 1-960 K603Q): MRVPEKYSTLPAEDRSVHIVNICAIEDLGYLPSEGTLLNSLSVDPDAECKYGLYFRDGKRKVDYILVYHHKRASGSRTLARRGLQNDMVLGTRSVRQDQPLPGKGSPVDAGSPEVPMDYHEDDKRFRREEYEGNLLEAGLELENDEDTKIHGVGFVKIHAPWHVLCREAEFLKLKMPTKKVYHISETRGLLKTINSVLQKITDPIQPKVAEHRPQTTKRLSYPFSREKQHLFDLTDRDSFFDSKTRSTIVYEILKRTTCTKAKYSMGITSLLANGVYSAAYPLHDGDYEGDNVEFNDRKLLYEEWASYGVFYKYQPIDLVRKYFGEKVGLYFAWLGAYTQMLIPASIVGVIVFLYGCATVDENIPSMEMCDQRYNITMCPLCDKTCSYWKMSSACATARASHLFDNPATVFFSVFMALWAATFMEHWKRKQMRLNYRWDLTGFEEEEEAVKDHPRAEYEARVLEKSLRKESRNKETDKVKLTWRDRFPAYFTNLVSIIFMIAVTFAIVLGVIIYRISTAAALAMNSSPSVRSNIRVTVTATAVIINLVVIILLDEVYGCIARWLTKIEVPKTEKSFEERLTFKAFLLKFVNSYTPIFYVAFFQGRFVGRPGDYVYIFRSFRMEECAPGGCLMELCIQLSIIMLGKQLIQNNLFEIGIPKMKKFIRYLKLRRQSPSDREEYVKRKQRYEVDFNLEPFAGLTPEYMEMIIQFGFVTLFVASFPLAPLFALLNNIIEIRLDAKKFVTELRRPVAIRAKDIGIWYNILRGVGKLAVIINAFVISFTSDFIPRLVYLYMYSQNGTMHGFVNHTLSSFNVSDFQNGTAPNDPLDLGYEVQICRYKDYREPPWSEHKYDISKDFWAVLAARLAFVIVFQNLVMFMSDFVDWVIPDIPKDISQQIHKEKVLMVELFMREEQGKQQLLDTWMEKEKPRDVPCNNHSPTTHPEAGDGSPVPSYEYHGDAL
Experiment: Inside-out patch recording of 1PBC block, mutant K603Q
Type: cell-based
Method: HEK293T cells (ATCC CRL-1573) were maintained in Dulbecco’s modified Eagle’s medium (DMEM; Sigma-Aldrich) supplemented with 10 U ml^−1 penicillin, 0.1 mg ml^−1 streptomycin (Sigma-Aldrich), 2 mM L-glutamine (Sigma-Aldrich), and 10% FBS (Sigma-Aldrich) in a humidified atmosphere containing 5% CO2 at 37 °C. HEK293S GnTI^− cells (ATCC CRL-3022) were maintained in HyClone HyCell TransFx-H medium (GE Healthcare) supplemented with 10 U ml^−1 penicillin, 0.1 mg ml^−1 streptomycin, 4 mM L-glutamine, 0.15% poloxamer 188 (Sigma-Aldrich), and 1% FBS in an atmosphere containing 5% CO2 at 185 rpm at 37 °C. The ac splice variant of mouse TMEM16A (UniProt ID: Q8BHY3), mouse TMEM16B (UniProt ID: Q8CFW1), or mouse TMEM16F (UniProt ID: Q6P9J9) bearing a 3C cleavage site, a Venus YFP, a Myc tag, and a Streptavidin-binding peptide (SBP) downstream of the open reading frame in a modified pcDNA3.1 vector (Invitrogen) were used as described previously[21],[31]. Mutations were introduced using a modified QuikChange method[58] and were verified by sequencing.
HEK293T cells were transfected with 3–4 μg DNA per 6 cm Petri dish using the calcium phosphate co-precipitation method and were used within 24–96 h after transfection. Recordings were performed on inside-out patches excised from HEK293T cells expressing the construct of interest. Patch pipettes were pulled from borosilicate glass capillaries (O.D. 1.5 mm, I.D. 0.86 mm, Sutter Instrument) and were fire-polished with a microforge (Narishige) before use. Pipette resistance was typically 3–8 MΩ when filled with the recording solutions detailed below. Seal resistance was typically 4 GΩ or higher. Voltage-clamp recordings were made using Axopatch 200B, Digidata 1550, and Clampex 10.7 (Molecular Devices). Analog signals were filtered with the in-built 4-pole Bessel filter at 10 kHz and were digitized at 20 kHz. Solution exchange was achieved using a gravity-fed system through a theta glass pipette mounted on an ultra-fast piezo-driven stepper (Siskiyou). […] All recordings were performed at 20 °C.
A symmetrical ionic condition was used throughout. Stock solution with Ca^2+-EGTA contained 150 mM NaCl, 5.99 mM Ca(OH)2, 5 mM EGTA, and 10 mM HEPES at pH 7.40. Stock solution with EGTA contained 150 mM NaCl, 5 mM EGTA, and 10 mM HEPES at pH 7.40. Free Ca^2+ concentrations were adjusted by mixing the stock solutions at the required ratios calculated using the WEBMAXC program (http://web.stanford.edu/~cpatton/webmaxcS.htm). Patch pipettes were filled with the stock solution with Ca^2+-EGTA, which has a free Ca^2+ concentration of 1 mM. 1PBC (ChemBridge) stock was reconstituted in anhydrous DMSO (Sigma-Aldrich) at 100 mM and stored at −20 °C. Working solutions with 1PBC were prepared by serial dilution. Unless otherwise stated, experiments were performed at a saturating Ca^2+ concentration as shown in Supplementary Table 1 and the primary data were corrected for current rundown as described previously[21],[25].
Concentration-response relations, obtained from the ratio of the I-V plots before and after the application of the blocker, were fitted to the Hill equation,1 I/Imax=1/1+IC50/[blocker]^h where I/Imax is the normalized current responses, IC50 defines the concentration at which inhibition is at its half-maximum, and h is the Hill coefficient.

IC50 (0 mV, 4 µM Ca2+): 193 µM
remaining activity at 10 µM (0 mV, 1PBC conc 10, read-out: relative current in 1PBC (avr)): 94.4%
remaining activity at 30 µM (0 mV, 1PBC conc 30, read-out: relative current in 1PBC (avr)): 85.8%
remaining activity at 100 µM (0 mV, 1PBC conc 100, read-out: relative current in 1PBC (avr)): 66.3%
remaining activity at 10 µM (10 µM 1PBC, +80 mV, saturating Ca2+ (4 µM), read-out: I/Imax): 95.1%
remaining activity at 10 µM (10 µM 1PBC, -80 mV, saturating Ca2+ (4 µM), read-out: I/Imax): 92.8%
remaining activity at 30 µM (30 µM 1PBC, +80 mV, saturating Ca2+ (4 µM), read-out: I/Imax): 87%
remaining activity at 30 µM (30 µM 1PBC, -80 mV, saturating Ca2+ (4 µM), read-out: I/Imax): 86.9%
remaining activity at 100 µM (100 µM 1PBC, +80 mV, saturating Ca2+ (4 µM), read-out: I/Imax): 65.4%
remaining activity at 100 µM (100 µM 1PBC, -80 mV, saturating Ca2+ (4 µM), read-out: I/Imax): 66.1%
IC50 (20 mV, 4 µM Ca2+): 206 µM
remaining activity at 10 µM (20 mV, 1PBC conc 10, read-out: relative current in 1PBC (avr)): 96.5%
remaining activity at 30 µM (20 mV, 1PBC conc 30, read-out: relative current in 1PBC (avr)): 87.2%
remaining activity at 100 µM (20 mV, 1PBC conc 100, read-out: relative current in 1PBC (avr)): 67.1%
IC50 (40 mV, 4 µM Ca2+): 190 µM
remaining activity at 10 µM (40 mV, 1PBC conc 10, read-out: relative current in 1PBC (avr)): 94.6%
remaining activity at 30 µM (40 mV, 1PBC conc 30, read-out: relative current in 1PBC (avr)): 87.4%
remaining activity at 100 µM (40 mV, 1PBC conc 100, read-out: relative current in 1PBC (avr)): 65%
IC50 (60 mV, 4 µM Ca2+): 196 µM
remaining activity at 10 µM (60 mV, 1PBC conc 10, read-out: relative current in 1PBC (avr)): 95%
remaining activity at 30 µM (60 mV, 1PBC conc 30, read-out: relative current in 1PBC (avr)): 86.3%
remaining activity at 100 µM (60 mV, 1PBC conc 100, read-out: relative current in 1PBC (avr)): 66.4%
log-fold IC50 (change of mutant vs WT) (80 mV): 1.991
IC50 (80 mV, 4 µM Ca2+): 192 µM
remaining activity at 10 µM (80 mV, 1PBC conc 10, read-out: relative current in 1PBC (avr)): 95.1%
remaining activity at 30 µM (80 mV, 1PBC conc 30, read-out: relative current in 1PBC (avr)): 87%
remaining activity at 100 µM (80 mV, 1PBC conc 100, read-out: relative current in 1PBC (avr)): 65.4%
IC50 (100 mV, 4 µM Ca2+): 197 µM
remaining activity at 10 µM (100 mV, 1PBC conc 10, read-out: relative current in 1PBC (avr)): 95.8%
remaining activity at 30 µM (100 mV, 1PBC conc 30, read-out: relative current in 1PBC (avr)): 87.5%
remaining activity at 100 µM (100 mV, 1PBC conc 100, read-out: relative current in 1PBC (avr)): 65.8%
IC50 (120 mV, 4 µM Ca2+): 198 µM
remaining activity at 10 µM (120 mV, 1PBC conc 10, read-out: relative current in 1PBC (avr)): 97.2%
remaining activity at 30 µM (120 mV, 1PBC conc 30, read-out: relative current in 1PBC (avr)): 88.7%
remaining activity at 100 µM (120 mV, 1PBC conc 100, read-out: relative current in 1PBC (avr)): 65%
IC50 (140 mV, 4 µM Ca2+): 196 µM
remaining activity at 10 µM (140 mV, 1PBC conc 10, read-out: relative current in 1PBC (avr)): 97.5%
remaining activity at 30 µM (140 mV, 1PBC conc 30, read-out: relative current in 1PBC (avr)): 89.1%
remaining activity at 100 µM (140 mV, 1PBC conc 100, read-out: relative current in 1PBC (avr)): 64.5%
IC50 (-20 mV, 4 µM Ca2+): 180 µM
remaining activity at 10 µM (-20 mV, 1PBC conc 10, read-out: relative current in 1PBC (avr)): 92.4%
remaining activity at 30 µM (-20 mV, 1PBC conc 30, read-out: relative current in 1PBC (avr)): 84.5%
remaining activity at 100 µM (-20 mV, 1PBC conc 100, read-out: relative current in 1PBC (avr)): 65.5%
IC50 (-40 mV, 4 µM Ca2+): 187 µM
remaining activity at 10 µM (-40 mV, 1PBC conc 10, read-out: relative current in 1PBC (avr)): 93.3%
remaining activity at 30 µM (-40 mV, 1PBC conc 30, read-out: relative current in 1PBC (avr)): 86.6%
remaining activity at 100 µM (-40 mV, 1PBC conc 100, read-out: relative current in 1PBC (avr)): 65.2%
IC50 (-60 mV, 4 µM Ca2+): 193 µM
remaining activity at 10 µM (-60 mV, 1PBC conc 10, read-out: relative current in 1PBC (avr)): 93.8%
remaining activity at 30 µM (-60 mV, 1PBC conc 30, read-out: relative current in 1PBC (avr)): 84.7%
remaining activity at 100 µM (-60 mV, 1PBC conc 100, read-out: relative current in 1PBC (avr)): 67.1%
IC50 (-80 mV, 4 µM Ca2+): 193 µM
remaining activity at 10 µM (-80 mV, 1PBC conc 10, read-out: relative current in 1PBC (avr)): 92.8%
remaining activity at 30 µM (-80 mV, 1PBC conc 30, read-out: relative current in 1PBC (avr)): 86.9%
remaining activity at 100 µM (-80 mV, 1PBC conc 100, read-out: relative current in 1PBC (avr)): 66.1%
IC50 (-100 mV, 4 µM Ca2+): 199 µM
remaining activity at 10 µM (-100 mV, 1PBC conc 10, read-out: relative current in 1PBC (avr)): 95.1%
remaining activity at 30 µM (-100 mV, 1PBC conc 30, read-out: relative current in 1PBC (avr)): 86.6%
remaining activity at 100 µM (-100 mV, 1PBC conc 100, read-out: relative current in 1PBC (avr)): 66.7%
IC50 (-120 mV, 4 µM Ca2+): 202 µM
remaining activity at 10 µM (-120 mV, 1PBC conc 10, read-out: relative current in 1PBC (avr)): 94.9%
remaining activity at 30 µM (-120 mV, 1PBC conc 30, read-out: relative current in 1PBC (avr)): 86.9%
remaining activity at 100 µM (-120 mV, 1PBC conc 100, read-out: relative current in 1PBC (avr)): 67%
IC50 (-140 mV, 4 µM Ca2+): 216 µM
remaining activity at 10 µM (-140 mV, 1PBC conc 10, read-out: relative current in 1PBC (avr)): 96.6%
remaining activity at 30 µM (-140 mV, 1PBC conc 30, read-out: relative current in 1PBC (avr)): 88.1%
remaining activity at 100 µM (-140 mV, 1PBC conc 100, read-out: relative current in 1PBC (avr)): 68%
IC50 (K603Q, V 0 mV): 193 µM
IC50 (K603Q, V 20 mV): 206 µM
IC50 (K603Q, V 40 mV): 190 µM
IC50 (K603Q, V 60 mV): 196 µM
IC50 (K603Q, V 80 mV): 192 µM
IC50 (K603Q, V 100 mV): 197 µM
IC50 (K603Q, V 120 mV): 198 µM
IC50 (K603Q, V 140 mV): 196 µM
IC50 (K603Q, V -20 mV): 180 µM
IC50 (K603Q, V -40 mV): 187 µM
IC50 (K603Q, V -60 mV): 193 µM
IC50 (K603Q, V -80 mV): 193 µM
IC50 (K603Q, V -100 mV): 199 µM
IC50 (K603Q, V -120 mV): 202 µM
IC50 (K603Q, V -140 mV): 216 µM
Lowering of the potency of block vs WT (Lys 603 to glutamine): about 100 fold
Structure (SMILES): N#Cc1c(C(F)(F)F)cc(O)n2c1nc1ccccc12 [1PBC]
